The numbers were not newly measured in patent US20160303051A1, “Burst Drug Release Compositions” (Wyeth LLC, priority 2009, published 2016), which cites them from elsewhere.

Each structure is given as a SMILES string.

For the compound `CC(C)Cc1ccc(C(C)C(=O)O)cc1` (stereo not shown) [Ibuprofen, ibuprofen], the “solubility (BCS)” value was “low solubility”.
